These results are taken from publication doi:10.1101/2024.08.12.607575v1 (bioRxiv, 2024).

Bridge positions count the residues as written; N and C are the ends. Peptide text beside a SMILES is read from it.

The target in series [1] is T1, human recombinant CD206 (Homo sapiens, UniProt P22897).
T1 sequence (P22897 19-1456): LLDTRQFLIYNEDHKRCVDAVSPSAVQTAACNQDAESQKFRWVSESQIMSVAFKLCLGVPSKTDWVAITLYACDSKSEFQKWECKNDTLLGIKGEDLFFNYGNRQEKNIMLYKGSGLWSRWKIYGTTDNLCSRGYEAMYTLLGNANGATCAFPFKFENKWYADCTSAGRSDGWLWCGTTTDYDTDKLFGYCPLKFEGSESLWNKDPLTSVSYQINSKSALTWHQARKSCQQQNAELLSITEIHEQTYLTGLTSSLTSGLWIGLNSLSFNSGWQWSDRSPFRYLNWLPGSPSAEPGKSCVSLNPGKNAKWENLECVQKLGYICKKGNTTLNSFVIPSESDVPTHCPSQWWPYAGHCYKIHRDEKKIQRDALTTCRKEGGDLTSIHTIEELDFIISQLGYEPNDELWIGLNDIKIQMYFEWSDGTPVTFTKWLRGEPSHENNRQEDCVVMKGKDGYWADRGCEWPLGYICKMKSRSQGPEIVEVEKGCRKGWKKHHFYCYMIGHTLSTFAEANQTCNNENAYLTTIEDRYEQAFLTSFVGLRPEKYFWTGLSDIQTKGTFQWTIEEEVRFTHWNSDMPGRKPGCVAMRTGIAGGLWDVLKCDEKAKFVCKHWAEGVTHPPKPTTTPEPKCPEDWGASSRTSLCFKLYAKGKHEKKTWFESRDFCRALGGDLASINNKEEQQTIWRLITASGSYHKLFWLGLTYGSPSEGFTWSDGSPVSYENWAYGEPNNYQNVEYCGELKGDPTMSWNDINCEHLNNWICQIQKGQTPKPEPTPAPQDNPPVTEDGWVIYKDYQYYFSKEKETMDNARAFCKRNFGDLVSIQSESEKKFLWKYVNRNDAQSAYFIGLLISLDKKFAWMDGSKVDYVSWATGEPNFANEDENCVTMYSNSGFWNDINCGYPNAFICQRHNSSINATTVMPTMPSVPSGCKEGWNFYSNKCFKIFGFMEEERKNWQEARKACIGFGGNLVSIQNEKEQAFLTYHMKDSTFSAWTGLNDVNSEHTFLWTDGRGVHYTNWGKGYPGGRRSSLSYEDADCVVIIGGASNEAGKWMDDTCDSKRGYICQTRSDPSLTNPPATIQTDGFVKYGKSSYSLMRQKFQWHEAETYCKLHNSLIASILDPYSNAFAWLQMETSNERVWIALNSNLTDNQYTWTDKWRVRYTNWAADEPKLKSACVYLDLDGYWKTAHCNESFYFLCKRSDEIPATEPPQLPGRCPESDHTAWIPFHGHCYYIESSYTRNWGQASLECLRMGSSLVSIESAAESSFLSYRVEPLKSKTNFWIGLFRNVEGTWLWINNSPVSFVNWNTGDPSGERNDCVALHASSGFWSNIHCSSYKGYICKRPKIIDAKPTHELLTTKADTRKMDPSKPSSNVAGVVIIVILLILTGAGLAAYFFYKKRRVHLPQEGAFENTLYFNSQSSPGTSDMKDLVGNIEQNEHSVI
The series is described as follows: Quartz Crystal Microbalance. The following applies: QCM, PAH/CD206 multilayer. In kind it is binding.

Series [2] relates to mouse bone marrow-derived macrophages (BMDMs). The series is described as follows: Phagocytosis assay. In kind it is cell-based. The following applies: 10 µM 4 h, washed, 48 h follow-up, relative to MACTIDE and untreated.
Series [3] relates to CD206. The settings on record: recognition moiety for CD206; cited from earlier work.
The test system of series [4] is orthotopic 4T1.2 tumors. Description: MACTIDE-V monotherapy in orthotopic 4T1.2. The settings on record: for CD8+ T cell density (mIHC): n=6 mice/group. In kind it is in vivo, mouse.
Series [5] relates to orthotopic 4T1 tumors. The series is described as follows: In vivo photodynamic therapy / treatment in orthotopic 4T1. The following applies: 30 nmoles i.p., no irradiation, compared with irradiated MACTIDE-V. Set-up: species or system mouse.
In series [6] the test system is mouse bone marrow-derived macrophages (BMDMs). The series is described as follows: Flow cytometry of BMDM markers. In kind it is cell-based. The following applies: Balb/C BMDMs, 48 h after treatment, not statistically significant. (A flow cytometer gives signals particle by particle.)
The mark [7] stands for this setting: tumor cell suspensions, n=4 per group.

For `CC[C@H](C)[C@@H]1NC(=O)[C@@H]2CCCN2C(=O)[C@@H]2CCCN2C(=O)[C@H]([C@@H](C)CC)NC(=O)[C@H](CO)NC(=O)[C@H](CCCCN)NC(=O)[C@H]([C@@H](C)O)NC(=O)[C@@H](NC(=O)CN)CSSC[C@@H](C(=O)N[C@@H](CO)C(=O)N2CCC[C@H]2C(=O)NCC(=O)N[C@@H](C)C(=O)N[C@@H](CCCCN)C(=O)O)NC1=O` [MACTIDE] (H-GCTKSIPPICSPGAK-OH; disulfide 2-10), the “dissociation upon washing with PBS” value in series [1] was “incompletely and slowly dissociated”. In series [2], the “phagocytosis of fluorescent E. coli particles” value is given as “no effects”.

Turning to `OC[C@H]1OC(O)[C@@H](O)[C@@H](O)[C@@H]1O` (stereo partly drawn) [mannose], the affinity of mannose result in series [3] is recorded as “low millimolar range”.

With “Vert-Ahx-AKPCGS-OH [CtrlPep-V, reference compound]”, in series [4], the “CD8+ T cell density (mIHC)” value is recorded as “trend of increased CD8^+ T cell density”.

As for “Vert-Ahx-G(CTKSIPPIC)SPGAK-OH (disulfide) [MACTIDE-V]”, the “body weight, non-irradiated (-)” value in series [5] is given as “less effect on body weight”. Moreover, the “CD8+ T cell density (mIHC)” value in series [4] is reported as “trend of increased CD8^+ T cell density”. Besides, in series [4] (setting [7]), the “percentage of CD206+ cells in tumor (flow cytometry)” value is reported as “did not reduce” and the “polymorphonuclear (PMN) or TAM/monocyte cell populations (flow cytometry)” value is “no effects”. Moreover, the “viability and differentiation of BMDMs” value in series [6] is “slightly affected”.
